Measured values reported in patent publication US20090298825A1, “Bicycloheteroaryl Compounds as P2x7 Modulators and Uses Thereof” (priority 2006, published 2009).

Tests used:
[1] = biological target: T1, P2X7 receptor (Homo sapiens, UniProt Q99572); test: IL-1β release assay in differentiated THP-1 cells stimulated with BzATP (Example 9); type: cell-based; details: for inhibition at 0.3 µM: 0.3 μM concentration, read-out: IL-1β % Inhib. @ 0.3 or 0.1 μM; for IC50: four parameter logistic fit, read-out: IL-1β IC50
T1 construct: endogenous in cells; host or cells: THP-1 cells differentiated with LPS and IFN-γ
T1 sequence (Q99572 1-595): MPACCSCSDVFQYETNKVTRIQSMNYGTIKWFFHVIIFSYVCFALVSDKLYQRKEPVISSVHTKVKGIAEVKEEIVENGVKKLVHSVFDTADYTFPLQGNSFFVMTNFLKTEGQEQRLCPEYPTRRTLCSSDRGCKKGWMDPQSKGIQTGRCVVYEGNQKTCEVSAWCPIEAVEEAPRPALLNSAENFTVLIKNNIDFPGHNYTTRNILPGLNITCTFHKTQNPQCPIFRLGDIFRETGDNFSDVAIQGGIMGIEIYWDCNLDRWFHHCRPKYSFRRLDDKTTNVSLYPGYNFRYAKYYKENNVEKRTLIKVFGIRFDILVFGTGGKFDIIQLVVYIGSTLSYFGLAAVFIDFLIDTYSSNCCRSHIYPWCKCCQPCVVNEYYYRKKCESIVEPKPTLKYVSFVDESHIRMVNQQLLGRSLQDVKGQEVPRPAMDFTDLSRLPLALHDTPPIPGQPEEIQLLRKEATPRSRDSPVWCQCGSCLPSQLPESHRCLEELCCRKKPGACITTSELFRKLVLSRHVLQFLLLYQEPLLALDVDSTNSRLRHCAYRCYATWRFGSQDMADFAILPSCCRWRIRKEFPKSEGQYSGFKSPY
In short: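 Differentiated THP-1 cells pretreated 30 min with compound, then stimulated with BzATP. Released IL-1β in supernatant measured by ELISA; background-adjusted percent inhibition fitted to four-parameter logistic for IC50.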

[2] = Half-life in human liver microsomes (HLM); type: in vitro ADME; details: pH 7.4, 1 μM compound, 0.78 mg/mL HLM, NADPH, 37° C.
Procedure: Test compounds (1 μM) are incubated with 3.3 mM MgCl2 and 0.78 mg/mL HLM (HL101) in 100 mM potassium phosphate buffer (pH 7.4) at 37° C. on the 96-deep well plate. The reaction mixture is split into two groups, a non-P450 and a P450 group. NADPH is only added to the reaction mixture of the P450 group. An aliquot of samples of P450 group is collected at 0, 10, 30, and 60 min time point, where 0 min time point indicated the time when NADPH is added into the reaction mixture of P450 group. An aliquot of samples of non-P450 group is collected at −10 and 65 min time point. Collected aliquots are extracted with acetonitrile solution containing an internal standard. The precipitated protein is spun down in centrifuge (2000 rpm, 15 min). The compound concentration in supernatant is measured by LC/MS/MS system.
The half-life value is obtained by plotting the natural logarithm of the peak area ratio of compounds/internal standard versus time. The slope of the line of best fit through the points yields the rate of metabolism (k).

Row | Compound | inhibition at 0.3 µM [1] | IC50 [1] | half-life at 1 μM [2]
1 | Cc1ccc(-n2ccc3c(NC(=O)CC45CC6CC(CC(C6)C4)C5)cccc3c2=O)cn1 [ID 715] | > 76% | 4.02 nM | 0.42 h
2 | O=C(Cc1ccc(Cl)c(C(F)(F)F)c1)Nc1cccc2c(=O)n(C3CCNC3)ccc12 (centres unmarked) [ID 814] | > 76% | 15.9 nM | 2.88 h
3 | O=C(Cc1ccc(Cl)c(C(F)(F)F)c1)Nc1cccc2c(=O)n([C@H]3CCNC3)ccc12 [ID 825] | > 76% | 16.4 nM | 4.27 h
4 | O=C(Cc1ccc(Cl)c(C(F)(F)F)c1)Nc1cccc2c(=O)n(C3CNCC3O)ccc12 (centres unmarked) [ID 826] | > 76% | 2.44 nM | 1.85 h
5 | O=C(CC1CCCCCC1)Nc1cccc2c(=O)n(C3CNCC3O)ccc12 (centres unmarked) [ID 828] | > 76% | 6.87 nM | 1.38 h
6 | C[C@H](C(=O)Nc1cccc2c(=O)n(C3CNCC3O)ccc12)c1ccc(Cl)cc1 (some centres unmarked) [ID 829] | > 76% | 19.9 nM | 1.54 h
7 | CC1(C)CC(CC(=O)Nc2cccc3c(=O)n([C@@H]4CCNC4)ccc23)CC(C)(C)C1 [ID 830] | > 76% | – | 5.59 h
8 | C[C@@H](C(=O)Nc1cccc2c(=O)n([C@H]3CCNC3)ccc12)c1ccc(Cl)c(Cl)c1 [ID 833] | > 76% | 35 nM | 3.62 h
9 | COc1ncccc1-n1ccc2c(NC(=O)Cc3ccc(Cl)c(C(F)(F)F)c3)cccc2c1=O [ID 847] | > 76% | 9.37 nM | 0.22 h

Now from value to molecule:

Row | inhibition at 0.3 µM [1] | IC50 [1] | half-life at 1 μM [2] | Compound
10 | > 76% | 11 nM | 0.73 h | Cc1ncccc1-n1ccc2c(NC(=O)Cc3ccc(C(F)(F)F)c(F)c3)cccc2c1=O [ID 855]
11 | > 76% | 4 nM | 0.49 h | Cc1ncccc1-n1ccc2c(NC(=O)Cc3ccc(Cl)c(C(F)(F)F)c3)cccc2c1=O [ID 861]
12 | > 76% | 8.72 nM | 1.08 h | O=C(Cc1ccc(C(F)(F)F)c(F)c1)Nc1cccc2c(=O)n(-c3cccnc3F)ccc12 [ID 871]
13 | > 76% | 14.7 nM | 0.54 h | O=C(Cc1ccc(Cl)cc1F)Nc1cccc2c(=O)n(C3CC3)ccc12 [ID 883]
14 | > 76% | 5.37 nM | 0.77 h | O=C(Cc1ccc(F)c(C(F)(F)F)c1)Nc1cccc2c(=O)n(C3CC3)ccc12 [ID 884]
